The values that follow come from patent publication EP1220852B1, “SUBSTITUTED DIAZEPANS” (Novartis AG, priority 1999, dated 2001).

The IC50 is the concentration at which inhibition is half-maximal.

One assay addresses T1, LFA-1/ICAM-1 (Homo sapiens, UniProt P05107+P20701).
T1 construct: endogenous in cells; host or cells: LFA-1: endogenous protein purified from JY cells (human lymphoblastoid B cell line); ICAM-1-Cκ fusion: made in house with the baculovirus system
The assay is described as follows: Cell free assay: binding of soluble human ICAM-1 to immobilized human LFA-1.

Assay [1] relates to allergic contact dermatitis. The assay is described as follows: Allergic contact dermatitis (ACD), oxazolone-induced, pinnal weight. It counts as in vivo, female NMRI mice. To be noted: pinnal weight 24 h after challenge. On the procedure:
ii) Allergic Contact Dermatitis (ACD)
Groups of 8 female NMRI mice are sensitized on the shaved abdomen with 50 µl of oxazolone (Sigma, 2% in acetone) and challenged with 10 µl of 0.2 or 2.0% oxazolone on the inner surface of the right ear 7 days later. The low concentration of oxazolone for induction of the elicitation phase is used for testing compounds on […] activity whereas the high concentration is applied for […] testing. The unchallenged left ears serve as normal controls and dermatitis is evaluated from the individual differences in pinnal weight, which is taken as a measure of increase in inflammatory swelling 24 h after the challenge. Dermatitis is evaluated in test- and for comparison in control groups. The test groups are treated with the test compounds either orally (twice, 2 h and immediately before challenge), subcutaneously (immediately before challenge) or topically (30 min after challenge at the site of elicitation of the ACD); the controls are treated similarly with the vehicles alone. […] The data of the test- and the vehicle-treated control groups are statistically analysed by ANOVA followed by Dunnet T-test (normal distribution or data) or by H and U-test, respectively. […]

T1 sequence (P20701 26-1170): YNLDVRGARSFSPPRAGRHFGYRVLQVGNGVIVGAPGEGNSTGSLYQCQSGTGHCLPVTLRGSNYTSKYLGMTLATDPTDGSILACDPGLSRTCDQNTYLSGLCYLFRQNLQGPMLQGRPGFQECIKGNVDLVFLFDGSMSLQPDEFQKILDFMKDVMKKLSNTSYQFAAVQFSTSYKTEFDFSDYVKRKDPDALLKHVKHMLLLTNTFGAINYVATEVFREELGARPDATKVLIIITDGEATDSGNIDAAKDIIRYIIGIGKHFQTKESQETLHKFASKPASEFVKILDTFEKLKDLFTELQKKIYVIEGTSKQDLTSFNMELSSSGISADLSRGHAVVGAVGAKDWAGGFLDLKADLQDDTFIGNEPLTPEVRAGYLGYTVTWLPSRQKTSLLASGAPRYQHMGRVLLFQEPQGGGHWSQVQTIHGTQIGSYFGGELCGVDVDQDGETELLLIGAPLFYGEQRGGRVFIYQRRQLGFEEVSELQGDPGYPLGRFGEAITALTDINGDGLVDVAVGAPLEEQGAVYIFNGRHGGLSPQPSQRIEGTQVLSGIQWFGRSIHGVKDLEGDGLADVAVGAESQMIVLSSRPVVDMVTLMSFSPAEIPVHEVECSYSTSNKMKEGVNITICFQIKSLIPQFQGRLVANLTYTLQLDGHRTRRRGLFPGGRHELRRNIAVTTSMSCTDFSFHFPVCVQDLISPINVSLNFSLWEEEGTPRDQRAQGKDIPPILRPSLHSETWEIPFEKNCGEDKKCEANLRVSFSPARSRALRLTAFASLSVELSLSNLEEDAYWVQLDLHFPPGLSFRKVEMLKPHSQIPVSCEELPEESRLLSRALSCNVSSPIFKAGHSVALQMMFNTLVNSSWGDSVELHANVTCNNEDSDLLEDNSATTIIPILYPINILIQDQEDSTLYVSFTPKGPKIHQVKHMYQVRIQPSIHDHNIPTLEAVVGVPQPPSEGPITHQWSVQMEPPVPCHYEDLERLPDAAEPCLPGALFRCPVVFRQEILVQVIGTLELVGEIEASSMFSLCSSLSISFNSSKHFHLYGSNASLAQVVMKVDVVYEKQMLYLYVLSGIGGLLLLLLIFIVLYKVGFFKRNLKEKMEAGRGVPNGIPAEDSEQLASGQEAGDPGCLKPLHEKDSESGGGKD
T1 sequence (P05107 23-769): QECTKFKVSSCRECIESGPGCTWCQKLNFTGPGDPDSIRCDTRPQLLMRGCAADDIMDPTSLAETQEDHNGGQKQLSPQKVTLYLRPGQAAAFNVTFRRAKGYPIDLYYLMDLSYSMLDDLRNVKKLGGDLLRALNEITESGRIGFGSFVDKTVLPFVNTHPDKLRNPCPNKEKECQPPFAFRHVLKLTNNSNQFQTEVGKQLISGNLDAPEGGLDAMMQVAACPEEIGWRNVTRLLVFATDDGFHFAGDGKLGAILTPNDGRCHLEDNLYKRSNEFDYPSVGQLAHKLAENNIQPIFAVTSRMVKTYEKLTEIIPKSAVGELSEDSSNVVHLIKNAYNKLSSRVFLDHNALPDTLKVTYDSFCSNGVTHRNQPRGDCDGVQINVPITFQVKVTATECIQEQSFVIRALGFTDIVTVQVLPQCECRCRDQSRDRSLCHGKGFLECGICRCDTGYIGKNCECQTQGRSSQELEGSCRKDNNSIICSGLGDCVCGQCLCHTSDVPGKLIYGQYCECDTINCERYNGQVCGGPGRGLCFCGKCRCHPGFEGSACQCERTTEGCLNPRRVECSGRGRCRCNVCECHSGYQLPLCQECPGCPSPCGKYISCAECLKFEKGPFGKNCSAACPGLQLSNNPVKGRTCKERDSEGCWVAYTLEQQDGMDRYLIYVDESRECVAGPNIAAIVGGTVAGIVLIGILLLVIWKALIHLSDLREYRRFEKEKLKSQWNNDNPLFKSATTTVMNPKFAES
Description for LFA-1/ICAM-1: A. In vitro: Cell Free Assay
The assay measures the binding of soluble human ICAM-1 to immobilized human LFA-1. LFA-1 is purified from JY cells, a human lymphoblastoid B cell-line, by immunoaffinity chromatography as described by Dustin et a/. […] ICAM-1 mouse Cκ fusion protein (ICAM-1) is produced using the baculovirus system as described by Weitz-Schmidt et al. (Anal. Biochem.238,184-190, 1996).
Purified LFA-1 is diluted 1:20 in phosphate buffered saline (PBS) containing 2 mM MgCl2, pH 7.4 and coated onto microtitre plates (Nunc) at 37°C for 3h. Plates are blocked with 1% heat-treated BSA in PBS for 2 hours at 37°C followed by a washing step using PBS, 2mM MgCl2, 1% fetal calf serum, pH 7.4 (assay buffer). Compounds dissolved at 10 mM in DMSO are diluted in assay buffer and added to the plates. Biotinylated recombinant ICAM-1 in assay buffer (6 µg/ml) is added and allowed to bind at 37°C for one hour. After incubation, wells are washed with assay buffer. Streptavidin-peroxidase diluted 1:5000 in assay buffer is added and incubated for 45 min at 37 °C. Plates are then washed with assay buffer and 2.2'-azino-bis(3-ethylbenzothiazoiine-6 sulfonic acid) diammonium salt substrate solution is added to each well. The reaction is stopped after 20 min and bound ICAM-1 is determined by measuring the optical density at 405 nm in a microplate reader.

At LFA-1/ICAM-1, `C[C@@H]1CCN([C@H](Cc2cccc3ccccc23)C(N)=O)C(=O)[C@H](c2ccccc2)N1C(=O)Cc1ccc2ncccc2c1` [Example 3, (R)-2-[(3S,5R)-5-Methyl-2-oxo-3-phenyl-4-(quinolin-6-yl-acetyl)-[1,4]diazepan-1-yl)-3-(naphthalen-1-yl)-propionamide] had an IC50 of 70 nM. The inhibiting effect in assay [1] (administered p.o. at a dose of 2 x 3 mg/kg) is recorded as 40%; in assay [1] (applied topically at a dose of 10 mM) it was 50%.
